From patent US20240228488A1 (TAKEDA PHARMACEUTICAL COMPANY LIMITED, priority 2021, published 2024)

Assays:
plasma kallikrein = target: T1, plasma kallikrein (Homo sapiens, UniProt P03952); assay: Neat human plasma assay, FXIIa contact pathway-activated, PFR-AMC substrate; type: biochemical; conditions: citrated human plasma 78% final, 10 nM human FXIIa, 100 μM PFR-AMC; read-out: Human Plasma Assay: IC90
T1 construct: from tissue
Method in brief: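 Compound inhibition of plasma kallikrein measured as PFR-AMC (100 μM) cleavage rate over 5 min at room temperature in 78% citrated human plasma activated with 10 nM FXIIa (Tris pH 7.5 buffer). IC50/IC90 from 4-parameter fit of rate versus inhibitor concentration.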

[1] = target: human activated kallikrein enzyme (Homo sapiens, UniProt P03952); assay: Plasma kallikrein inhibition, fluorogenic PFR-AMC substrate, 500 pM activated kallikrein format; type: biochemical; conditions: 500 pM activated kallikrein, 300 uM PFR-AMC, 30 min preincubation, 10 min reaction; read-out: Primary Dose Response Assay: Average EC50
Method in brief: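 Fluorogenic readout (ex 380 / em 460 nm) after 10 min room-temperature reaction with 300 uM Pro-Phe-Arg-AMC substrate, following 30 min preincubation of inhibitors with 500 pM enzyme. Buffer: Tris pH 7.5, EDTA, NaCl, PEG-400, Triton X-100. Values given as EC50 ranges.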

T1 sequence (P03952 391-638 limits assumed): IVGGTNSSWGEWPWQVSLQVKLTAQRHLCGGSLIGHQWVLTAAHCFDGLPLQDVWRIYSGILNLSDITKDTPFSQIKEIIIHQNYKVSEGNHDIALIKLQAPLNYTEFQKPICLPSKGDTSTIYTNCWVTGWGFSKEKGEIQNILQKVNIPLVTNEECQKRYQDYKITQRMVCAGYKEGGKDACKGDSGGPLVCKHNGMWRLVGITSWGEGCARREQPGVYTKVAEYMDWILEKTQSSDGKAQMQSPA
T1 sequence (P03952 20-390 partner limits assumed): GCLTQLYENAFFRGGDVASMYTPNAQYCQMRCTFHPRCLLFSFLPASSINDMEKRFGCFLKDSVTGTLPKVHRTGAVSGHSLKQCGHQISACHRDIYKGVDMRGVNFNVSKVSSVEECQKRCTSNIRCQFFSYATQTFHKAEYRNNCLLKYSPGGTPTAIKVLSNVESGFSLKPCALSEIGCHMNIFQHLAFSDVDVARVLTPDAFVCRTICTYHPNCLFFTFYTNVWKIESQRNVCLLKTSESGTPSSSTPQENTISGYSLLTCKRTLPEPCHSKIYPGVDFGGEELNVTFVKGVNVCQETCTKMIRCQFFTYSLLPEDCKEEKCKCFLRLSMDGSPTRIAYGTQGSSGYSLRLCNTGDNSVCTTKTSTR
human activated kallikrein enzyme, sequence (P03952 391-638 limits assumed): as the sequence (P03952 391-638 limits assumed) above
human activated kallikrein enzyme, sequence (P03952 20-390 partner limits assumed): as the sequence (P03952 20-390 partner limits assumed) above

Compound | IC90 (plasma kallikrein) | EC50 [1]
N#Cc1ccc(Cl)c(F)c1[C@H]1C[C@@H]1C(=O)Nc1cc(NCc2cn3cc(C4CC4)ccc3n2)ncn1 (racemic) [Example 50, rac-(1S*,2S*)-2-(3-chloro-6-cyano-2-fluorophenyl)-N-(6-(((6-cyclopropylimidazo[1,2-a]pyridin-2-yl)methyl)amino)pyrimidin-4-yl)cyclopropane-1-carboxamide] | 10000 to 48000 nM | 1 to 10 nM
COCc1nc(NC(=O)[C@H]2C[C@@H]2c2nccc(C)n2)cc(N(C)Cc2cn3cc(C4CC4)cc(N4CC(=O)N(C)C4=O)c3n2)n1 [Example 354, (1S,2S)-N-(6-(((6-cyclopropyl-8-(3-methyl-2,4-dioxoimidazolidin-1-yl)imidazo[1,2-a]pyridin-2-yl)methyl)(methyl)amino)-2-(methoxymethyl)pyrimidin-4-yl)-2-(4-methylpyrimidin-2-yl)cyclopropane-1-carboxamide] | < 400 nM | < 1 nM
Cc1ccnc([C@H]2C[C@@H]2C(=O)Nc2cc(NCc3cn4cc(C5CC5)cc(N5CC(=O)N(C)C5=O)c4n3)nc(C(F)(F)F)n2)n1 (racemic) [Example 501, rac-(1S*,2S*)-N-(6-(((6-cyclopropyl-8-(3-methyl-2,4-dioxoimidazolidin-1-yl)imidazo[1,2-a]pyridin-2-yl)methyl)amino)-2-(trifluoromethyl)pyrimidin-4-yl)-2-(4-methylpyrimidin-2-yl)cyclopropane-1-carboxamide] | 400 to 1500 nM | < 1 nM
CN(c1cc(C2CC2)cn2cc(CNc3ccnc(NC(=O)[C@H]4C[C@@H]4c4cccc(Cl)c4)c3)nc12)S(C)(=O)=O [Example 128, (1S,2S)-2-(3-chlorophenyl)-N-(4-(((6-cyclopropyl-8-(N-methylmethylsulfonamido)imidazo[1,2-a]pyridin-2-yl)methyl)amino)pyridin-2-yl)cyclopropane-1-carboxamide] | 400 to 1500 nM | < 1 nM
Cc1ccnc([C@H]2C[C@@H]2C(=O)Nc2cncc(NCc3cn4cc(C5CC5)cc(N5CC(=O)N(C)C5=O)c4n3)c2)n1 (racemic) [Example 575, rac-(1S*,2S*)-N-(5-(((6-cyclopropyl-8-(3-methyl-2,4-dioxoimidazolidin-1-yl)imidazo[1,2-a]pyridin-2-yl)methyl)amino)pyridin-3-yl)-2-(4-methylpyrimidin-2-yl)cyclopropane-1-carboxamide] | < 400 nM | < 1 nM
Cc1ccnc([C@H]2C[C@@H]2C(=O)Nc2cc(NC(C)c3cn4cc(Cl)cc(N5CC(=O)N(C)C5=O)c4n3)nc(C)n2)n1 (stereo partly drawn) [Example 356, (1S,2S)-N-(6-((1-(6-chloro-8-(3-methyl-2,4-dioxoimidazolidin-1-yl)imidazo[1,2-a]pyridin-2-yl)ethyl)amino)-2-methylpyrimidin-4-yl)-2-(4-methylpyrimidin-2-yl)cyclopropane-1-carboxamide] | 1500 to 10000 nM | < 1 nM
CC(C)(O)c1cc(C2CC2)cn2cc(CNc3ccnc(NC(=O)[C@H]4C[C@@H]4c4cccc(Cl)c4)c3)nc12 [Example 122, (1S,2S)-2-(3-chlorophenyl)-N-(4-(((6-cyclopropyl-8-(2-hydroxypropan-2-yl)imidazo[1,2-a]pyridin-2-yl)methyl)amino)pyridin-2-yl)cyclopropane-1-carboxamide] | 10000 to 48000 nM | 1 to 10 nM
Cc1ccnc([C@H]2C[C@@H]2C(=O)Nc2cc(NCc3cn4cc(C5CC5)cc(S(C)(=O)=O)c4n3)ncn2)n1 (single isomer, unassigned) [Example 324] | 400 to 1500 nM | < 1 nM
CCN1C(=O)CN(c2cc(C3CC3)cn3cc(CNc4cc(NC(=O)[C@H]5C[C@@H]5c5nccc(C)n5)ncn4)nc23)C1=O [Example 385, (1S,2S)-N-(6-(((6-cyclopropyl-8-(3-ethyl-2,4-dioxoimidazolidin-1-yl)imidazo[1,2-a]pyridin-2-yl)methyl)amino)pyrimidin-4-yl)-2-(4-methylpyrimidin-2-yl)cyclopropane-1-carboxamide] | < 400 nM | < 1 nM
N#Cc1cc(C2CC2)cn2cc(CNc3cc(NC(=O)[C@H]4C[C@@H]4c4cccc(Cl)c4)ncn3)nc12 (racemic) [Example 71, rac-(1S*,2S*)-2-(3-chlorophenyl)-N-(6-(((8-cyano-6-cyclopropylimidazo[1,2-a]pyridin-2-yl)methyl)amino)pyrimidin-4-yl)cyclopropane-1-carboxamide] | 10000 to 48000 nM | 1 to 10 nM
CC(=O)N(C)c1cc(C2CC2)cn2cc(CNc3ccnc(NC(=O)[C@H]4C[C@@H]4c4cccc(Cl)c4)c3)nc12 [Example 139, (1S,2S)-2-(3-chlorophenyl)-N-(4-(((6-cyclopropyl-8-(N-methylacetamido)imidazo[1,2-a]pyridin-2-yl)methyl)amino)pyridin-2-yl)cyclopropane-1-carboxamide] | 400 to 1500 nM | < 1 nM
O=C(Nc1cc(NCc2cn3cc(C4CC4)cc(CO)c3n2)ncn1)[C@H]1C[C@@H]1c1cccc(Cl)c1 (racemic) [Example 70, rac-(1S*,2S*)-2-(3-chlorophenyl)-N-(6-(((6-cyclopropyl-8-(hydroxymethyl)imidazo[1,2-α]pyridin-2-yl)methyl)amino)pyrimidin-4-yl)cyclopropane-1-carboxamide] | > 48000 nM | 1 to 10 nM
CS(=O)(=O)c1cc(C2CC2)cn2cc(CNc3cc(NC(=O)[C@H]4C[C@@H]4c4cccc(Cl)c4)ncn3)nc12 (racemic) [Example 60, rac-(1S*,2S*)-2-(3-chlorophenyl)-N-(6-(((6-cyclopropyl-8-(methylsulfonyl)imidazo[1,2-α]pyridin-2-yl)methyl)amino)pyrimidin-4-yl)cyclopropane-1-carboxamide] | 10000 to 48000 nM | 1 to 10 nM
O=C(Nc1cc(NCc2cn3cc(C4CC4)cc(C4(F)COC4)c3n2)ncn1)[C@H]1C[C@@H]1c1cccc(Cl)c1 (racemic) [Example 64, rac-(1S*,2S*)-2-(3-chlorophenyl)-N-(6-(((6-cyclopropyl-8-(3-fluorooxetan-3-yl)imidazo[1,2-α]pyridin-2-yl)methyl)amino)pyrimidin-4-yl)cyclopropane-1-carboxamide] | > 48000 nM | 1 to 10 nM
O=C(Nc1cc(NCc2cn3cc(C4CC4)cc(N4C(=O)C5CCC4C5)c3n2)ccn1)[C@H]1C[C@@H]1c1cccc(Cl)c1 (stereo partly drawn) [Example 92, (1S,2S)-2-(3-chlorophenyl)-N-(4-(((6-cyclopropyl-8-(3-oxo-2-azabicyclo[2.2.1]heptan-2-yl)imidazo[1,2-a]pyridin-2-yl)methyl)amino)pyridin-2-yl)cyclopropane-1-carboxamide] | 1500 to 10000 nM | < 1 nM

Results, then the compound that gave them:

IC90 (plasma kallikrein) | EC50 [1] | Compound
> 48000 nM | 1 to 10 nM | Nc1ccc(Cl)cc1[C@H]1C[C@@H]1C(=O)Nc1cc(NCc2cn3cc(C4CC4)ccc3n2)ccn1 (racemic) [Example I-222, rac-(1S*,2S*)-2-(2-amino-5-chlorophenyl)-N-(4-(((6-cyclopropylimidazo[1,2-a]pyridin-2-yl)methyl)amino)pyridin-2-yl)cyclopropane-1-carboxamide]
400 to 1500 nM | < 1 nM | CN1C(=O)CN(c2cc(C3CC3)cn3cc(CNc4cc(NC(=O)[C@H]5C[C@@H]5c5cc(Cl)ccn5)ncn4)nc23)C1=O (racemic) [Example I-262, rac-(1S*,2S*)-2-(4-chloropyridin-2-yl)-N-(6-(((6-cyclopropyl-8-(3-methyl-2,4-dioxoimidazolidin-1-yl)imidazo[1,2-a]pyridin-2-yl)methyl)amino)pyrimidin-4-yl)cyclopropane-1-carboxamide]
< 400 nM | < 1 nM | CN1CC(O)(c2cc(C3CC3)cn3cc(CNc4cc(NC(=O)[C@H]5C[C@@H]5c5cccc(Cl)c5)ncn4)nc23)C1 [Example I-198, (1S,2S)-2-(3-chlorophenyl)-N-(6-(((6-cyclopropyl-8-(3-hydroxy-1-methylazetidin-3-yl)imidazo[1,2-a]pyridin-2-yl)methyl)amino)pyrimidin-4-yl)cyclopropane-1-carboxamide]
10000 to 48000 nM | < 1 nM | O=C(Nc1cc(NCc2cn3cc(C4CC4)ccc3n2)ccn1)[C@H]1C[C@@H]1c1cc(Cl)ccn1 (racemic) [Example I-268, rac-(1S*,2S*)-2-(4-chloropyridin-2-yl)-N-(4-(((6-cyclopropylimidazo[1,2-a]pyridin-2-yl)methyl)amino)pyridin-2-yl)cyclopropane-1-carboxamide]
400 to 1500 nM | < 1 nM | CN1C(=O)CN(c2cc(C3CC3)cn3cc(CNc4cc(NC(=O)[C@H]5C[C@@H]5c5nccc(Cl)n5)ncn4)nc23)C1=O (racemic) [Example I-168, rac-(1S*,2S*)-2-(4-chloropyrimidin-2-yl)-N-(6-(((6-cyclopropyl-8-(3-methyl-2,4-dioxoimidazolidin-1-yl)imidazo[1,2-a]pyridin-2-yl)methyl)amino)pyrimidin-4-yl)cyclopropane-1-carboxamide]
400 to 1500 nM | < 1 nM | CN1CCN(c2cc(C3CC3)cn3cc(CNc4cc(NC(=O)[C@H]5C[C@@H]5c5cc(Cl)ccn5)ncn4)nc23)C(=O)C1 (racemic) [Example I-195, rac-(1S*,2S*)-2-(4-chloropyridin-2-yl)-N-(6-(((6-cyclopropyl-8-(4-methyl-2-oxopiperazin-1-yl)imidazo[1,2-a]pyridin-2-yl)methyl)amino)pyrimidin-4-yl)cyclopropane-1-carboxamide]
